Measurements as given in patent publication US11395833B2, “Process for the preparation and purification of the sodium salt of hyaluronic acid” (priority 2016, dated 2022).

Experiment: LAL test for bacterial endotoxins (Ph. Eur. 5.0, 2.6.14)
Conditions: analysis of the product according to Ph. Eur. 5.0
Experimental: LAL Test: the basis of the LAL test is the capacity of the amebocytes extracted from blood of Limulus polyphemus to gel in the presence of bacterial endotoxins from Gram-negatives, primarily responsible for the pyrogen effect. This test is carried out according to Ph. Eur. 5.0, 2.6.14.

For sodium salt of HA [Example 3], which “Bacterial endotoxins (LAL test)” value is on record?
Its value is 0.0075 EU/mg.

For sodium salt of HA [Example 1], which “Bacterial endotoxins (LAL test)” value is on record?
The value was 0.012 EU/mg.

For sodium salt of HA [Example 2], which “Bacterial endotoxins (LAL test)” value is on record?
The value was 0.012 EU/mg.
